Experimental data published in paper PMC7532004, “Site-specific effects of neurosteroids on GABAA receptor activation and desensitization” (eLife, 2020).

Columns and labels:
[1] = target: α1(Q242L/N408A/Y411F)β3 GABAAR (UniProt P28472+P62813, N434A/Q268L/Y437F); assay: [3H]muscimol binding to HEK cell membranes, intersubunit + α1 intrasubunit site mutant; design: expressed in transfected cells; host or cells: HEK293S GnTI- (ATCC CRL-3022), transient; species or system rat α1, human β3; conditions: 3 nM [3H]muscimol, 100% means no effect
Chain of α1(Q242L/N408A/Y411F)β3 GABAAR (P62813 28-455 Q268L/N434A/Y437F): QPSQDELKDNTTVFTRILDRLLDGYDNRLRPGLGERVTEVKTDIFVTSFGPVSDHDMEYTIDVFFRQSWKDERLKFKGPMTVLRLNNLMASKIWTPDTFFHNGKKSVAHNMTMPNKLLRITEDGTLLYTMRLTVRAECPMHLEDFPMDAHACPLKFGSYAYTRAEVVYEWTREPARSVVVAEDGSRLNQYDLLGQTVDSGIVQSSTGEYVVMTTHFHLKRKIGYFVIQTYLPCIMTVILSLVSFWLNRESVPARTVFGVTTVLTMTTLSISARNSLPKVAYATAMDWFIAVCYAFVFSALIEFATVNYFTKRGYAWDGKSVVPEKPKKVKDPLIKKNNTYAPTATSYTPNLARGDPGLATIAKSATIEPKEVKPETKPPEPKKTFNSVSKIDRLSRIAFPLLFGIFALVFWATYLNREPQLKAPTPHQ
Chain of α1(Q242L/N408A/Y411F)β3 GABAAR (P28472 26-473): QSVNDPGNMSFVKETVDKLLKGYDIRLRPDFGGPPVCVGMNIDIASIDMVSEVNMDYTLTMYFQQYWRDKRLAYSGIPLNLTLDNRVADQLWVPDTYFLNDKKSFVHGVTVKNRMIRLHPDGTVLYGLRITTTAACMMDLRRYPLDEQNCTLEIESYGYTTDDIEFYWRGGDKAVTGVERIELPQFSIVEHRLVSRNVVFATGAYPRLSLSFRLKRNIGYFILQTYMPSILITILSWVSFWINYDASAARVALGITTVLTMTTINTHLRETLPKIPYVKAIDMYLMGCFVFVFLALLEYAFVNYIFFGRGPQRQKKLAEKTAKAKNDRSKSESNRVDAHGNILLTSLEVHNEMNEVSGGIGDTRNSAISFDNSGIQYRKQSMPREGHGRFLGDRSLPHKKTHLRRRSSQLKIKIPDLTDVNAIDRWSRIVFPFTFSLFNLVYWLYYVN
Description: The human α1 and β3 GABAAR subunits were subcloned into pcDNA3 for molecular manipulations and cRNA synthesis. Using QuikChange Site-Directed Mutagenesis Kit (Agilent Technologies, Santa Clara, CA), a FLAG tag was first added to the α1 subunit then an 8xHis tag was added to generate the following His-FLAG tag tandem ([…]), inserted between the fourth and fifth residues of the mature peptide. The α1 and β3 subunits were then transferred into the pcDNA4/TO and pcDNA5/TO vectors (Thermo Fisher Scientific), respectively, for tetracycline inducible expression. Transient expression was done using the GABAAR subunits rat α1FLAG ([Ueno et al., 1996]) and human β3 obtained from Geoffrey White (Neurogen, Branford, CT), each were subcloned into pcDNA3 for molecular manipulations and cRNA synthesis. […]
[^3H]muscimol-binding assays were performed using a previously described method ([Chen et al., 2019]). […] Time courses of neurosteroid [^3H]muscimol binding enhancement were examined by adding 10 µM of neurosteroids (3α5αP, 3β5αP) to membranes that had been fully equilibrated with 3 nM [^3H]muscimol for 1 hr on ice; binding was then measured as a function of time at 1, 3, 10, 30, 60 min. […] Radioactivity bound to the filters was measured by liquid scintillation spectrometry using Bio-Safe II (Research Products International, Mount Prospect, IL).

[2] = tested on: α1β3(Y284F) GABAAR; assay: Two-electrode voltage clamp in Xenopus laevis oocytes, Y284F mutant; type: cell-based; conditions: 3 μM 3β5αP, 1 mM GABA; α1β3(Y284F) vs WT
Description: The wild-type and mutant α1β3 GABAAR were expressed in oocytes from the African clawed frog (Xenopus laevis). Frogs were purchased from Xenopus 1 (Dexter, MI), and housed and cared for in a Washington University Animal Care Facility under the supervision of the Washington University Division of Comparative Medicine. Harvesting of oocytes was conducted under the Guide for the Care and Use of Laboratory Animals as adopted and promulgated by the National Institutes of Health. The animal protocol (No. 20180191) was approved by the Animal Studies Committee of Washington University in St. Louis. The oocytes were injected with a total of 12 ng cRNA. The ratio of cRNAs was 5:1 ratio (α1:β3) to minimize the expression of β3 homomeric receptors. Following injection, the oocytes were incubated in ND96 (96 mM NaCl, 2 mM KCl, 1.8 mM CaCl2, 1 mM MgCl2, 5 mM HEPES; pH 7.4) with supplements (2.5 mM Na pyruvate, 100 U/ml penicillin, 100 μg/ml streptomycin and 50 μg/ml gentamycin) at 16°C for 2 days prior to conducting electrophysiological recordings. The electrophysiological recordings were conducted at room temperature using standard two-electrode voltage clamp. The oocytes were clamped at −60 mV. The chamber (RC-1Z, Warner Instruments, Hamden, CT) was perfused with ND96 at 5–8 ml/min. […] Current traces were analyzed with Clampfit (Molecular Devices). […]

Compound | Emax (% of control) of [3H]muscimol binding [1] | Prevention of 3β5αP-enhanced desensitization by mutation [2]
CC(=O)[C@H]1CC[C@H]2[C@@H]3CC[C@H]4C[C@H](O)CC[C@]4(C)[C@H]3CC[C@]12C [3α5αP, allopregnanolone] | **105.9 ± 7.3 % of control | –
CC(=O)[C@H]1CC[C@H]2[C@@H]3CC[C@H]4C[C@@H](O)CC[C@]4(C)[C@H]3CC[C@]12C [3β5αP, epi-allopregnanolone] | – | ~ 67%
